Where two headings read alike, the source gives them in different places.

In patent US9296698B2, “Amino heteroaryl compounds as beta-secretase modulators and methods of use” (Amgen Inc., priority 2009, dated 2016) one finds IC50 data, which are given here for 19 compounds.

The target in assay [1] is BACE 1 (Beta Secretase enzyme) (Homo sapiens, UniProt P56817). In words: In vitro enzymatic BACE FRET assay. Type of assay: biochemical. The following applies: IC50 range symbols, Table 1; read-out: BACE 1 FRET assay. In short, it runs like this: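 BACE activity read by FRET: peptide substrate (50 nM) carrying fluorophore and quencher across the cleavage site, incubated one hour in 0.05 M acetate pH 4.2, 10% DMSO final, 100 uM genapol. Tris addition raises pH to neutrality to stop the reaction before fluorescence is read.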
BACE 1 (Beta Secretase enzyme), sequence (P56817 46-501, species assumed): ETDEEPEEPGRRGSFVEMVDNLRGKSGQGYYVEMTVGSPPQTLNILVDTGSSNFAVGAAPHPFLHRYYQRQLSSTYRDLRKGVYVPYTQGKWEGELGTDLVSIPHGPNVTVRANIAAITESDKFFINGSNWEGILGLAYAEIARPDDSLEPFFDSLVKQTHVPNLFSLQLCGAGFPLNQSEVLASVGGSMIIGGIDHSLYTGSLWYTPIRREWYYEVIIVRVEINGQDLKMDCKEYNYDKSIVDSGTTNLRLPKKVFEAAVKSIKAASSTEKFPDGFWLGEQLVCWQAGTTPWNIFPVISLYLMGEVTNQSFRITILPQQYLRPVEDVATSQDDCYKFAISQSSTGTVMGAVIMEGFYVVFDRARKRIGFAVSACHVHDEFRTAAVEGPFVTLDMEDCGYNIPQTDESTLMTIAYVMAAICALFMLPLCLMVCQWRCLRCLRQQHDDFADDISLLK

Assay [2] has as its system Aβ40 in conditioned medium of cells stably expressing Amyloid Precursor Protein (APP). The assay is described as follows: In vitro BACE cell-based assay (HEK cell assay), Aβ40 sandwich ELISA. In short, it runs like this: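 Cells stably expressing APP received 10-point compound dilutions (top 100 μM or 10 μM; 0.1% DMSO) for 24 h. Secreted Aβ40 was quantified by sandwich ELISA (pAb40 capture, biotinylated 6E10 detection, europium time-resolved fluorescence). IC50 was derived from percent inhibition versus concentration.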

Setting [3] is: Homo sapiens, HEK293, 24 h, IC50 range symbols, Table 1, Aβ40, 24 h incubation, read-out: HEK cell assay.
The mark [4] stands for this setting: Homo sapiens, HEK293, bound stated in text, read-out: IC50 value in the BACE cell-based in-vitro assay.
Setting [5] is: IC50 range symbols, Table 1, Aβ40, 24 h incubation, read-out: HEK cell assay.

As for `CNC(=O)[C@@H](C)Cc1cc2cc(-c3c(C)cccc3C(=O)N3CCCC3)ccc2nc1N` [Example 155, (S) 3-(2-amino-6-(2-methyl-6-(pyrrolidine-1-carbonyl)phenyl)quinolin-3-yl)-N,2-dimethylpropanamide], the IC50 in assay [1] and in assay [2] (setting [3]) was 1000 to 5000 nM each time.
`CNC(=O)C(C)Cc1cc2cc(-c3ccccc3C(=O)C3CCCCC3)ccc2nc1N` (stereo not shown) [Example 157, 3-(2-amino-6-(2-(cyclohexanecarbonyl)phenyl)quinolin-3-yl)-N,2-dimethylpropanamide]: the IC50 was under 500 nM in assay [1] and 500 to 1000 nM in assay [2] (setting [3]).
For `Cc1ccccc1-c1ccc2nc(N)c(C[C@@H](C)C(=O)NC3CCOC(C)C3)cc2c1` (stereo partly drawn) [Example 158, (2R)-3-(2-amino-6-o-tolylquinolin-3-yl)-2-methyl-N-(2-methyltetrahydro-2H-pyran-4-yl)propanamide] the same measures were under 500 nM and under 500 nM.
For `CC(Cc1cc2cc(-c3cccc(Cl)c3Cl)ccc2nc1N)C(=O)NC1CCOC(C)(C)C1` (stereo not shown) [Example 159, 3-(2-amino-6-(2,3-dichlorophenyl)quinolin-3-yl)-N-(2,2-dimethyltetrahydro-2H-pyran-4-yl)-2-methylpropanamide], in that order: under 500 nM and under 500 nM.
For `C#CC1CC(NC(=O)[C@H](C)Cc2cc3cc(-c4ccccc4C)ccc3nc2N)CCO1` (stereo partly drawn) [Example 160, (R)-3-(2-amino-6-o-tolylquinolin-3-yl)-N-(cis-2-ethynyltetrahydro-2H-pyran-4-yl)-2-methylpropanamide], in that order: under 500 nM and under 500 nM.
Turning to `CC(Cc1cc2cc(-c3cccc(Cl)c3Cl)ccc2nc1N)C(=O)NC1CCOC2(CCC2)C1` (stereo not shown) [Example 161, 3-(2-amino-6-(2,3-dichlorophenyl)quinolin-3-yl)-2-methyl-N-(5-oxaspiro[3.5]nonan-8-yl)propanamide], the IC50 in assay [1] and in assay [2] (setting [3]) was under 500 nM each time.
Take `Cc1ccccc1-c1ccc2nc(N)c(C[C@@H](C)C(=O)NC3CCCC(C)(C)C3)cc2c1` (stereo partly drawn) [Example 162, (2R)-3-(2-amino-6-(2-methylphenyl)-3-quinolinyl)-N-(3,3-dimethylcyclohexyl)-2-methylpropanamide]: the IC50 in assay [1] and in assay [2] (setting [3]) was under 500 nM throughout.
In the case of `Cc1ccccc1-c1ccc2nc(N)c(CCC(=O)NC3CCOC(C)(C)C3)cc2c1` (stereo not shown) [Example 163, 3-(2-amino-6-(2-methylphenyl)-3-quinolinyl)-N-(-2,2-dimethyltetrahydro-2H-pyran-4-yl)propanamide], the results for the IC50 in assay [1], in assay [2] (setting [3]) and in assay [2] (setting [4]) were under 500 nM, under 500 nM and under 100 nM, respectively.
`CC(C)(C)CCNC(=O)CCc1cc2cc(-c3ccccc3C(=O)N3CCCC3)ccc2nc1N` [Example 165, 3-(2-amino-6-(2-(1-pyrrolidinylcarbonyl)phenyl)-3-quinolinyl)-N-(3,3-dimethylbutyl)propanamide]: the IC50 in assay [1] was under 500 nM; in assay [2] (setting [3]), 1000 to 5000 nM.
For `CC(Cc1cc2cc(-c3ccc(F)cc3Cl)ccc2nc1N)C(=O)NC1CCOC(C)(C)C1` (stereo not shown) [Example 166, 3-(2-amino-6-(2-chloro-4-fluorophenyl)-3-quinolinyl)-N-(2,2-dimethyltetrahydro-2H-pyran-4-yl)-2-methylpropanamide] the same measures were under 500 nM and 1000 to 5000 nM.
For `CC(Cc1cc2cc(-c3ccc(F)cc3)ccc2nc1N)C(=O)NC1CCOC(C)(C)C1` (stereo not shown) [Example 167, 3-(2-amino-6-(4-fluorophenyl)-3-quinolinyl)-N-(2,2-dimethyltetrahydro-2H-pyran-4-yl)-2-methylpropanamide], in that order: 1000 to 5000 nM and over 5000 nM.
For `CC(Cc1cc2cc(-c3ccc(Cl)cc3)ccc2nc1N)C(=O)NC1CCOC(C)(C)C1` (stereo not shown) [Example 168, 3-(2-amino-6-(4-chlorophenyl)-3-quinolinyl)-N-(2,2-dimethyltetrahydro-2H-pyran-4-yl)-2-methylpropanamide] the same measures were under 500 nM and under 500 nM.
`CC(Cc1cc2cc(-c3cccc(Cl)c3)ccc2nc1N)C(=O)NC1CCOC(C)(C)C1` (stereo not shown) [Example 169, 3-(2-amino-6-(3-chlorophenyl)-3-quinolinyl)-N-(2,2-dimethyltetrahydro-2H-pyran-4-yl)-2-methylpropanamide]: the IC50 in assay [1] was under 500 nM; in assay [2] (setting [3]), under 500 nM; in assay [2] (setting [4]) it was under 100 nM.
Regarding `Cc1ccccc1-c1ccc2nc(N)c(CC(C)C(=O)NC3CCOC4(CCC4)C3)cc2c1` [Example 170, (2R)-3-(2-amino-6-(2-methylphenyl)-3-quinolinyl)-2-methyl-N-(5-oxaspiro[35]non-8-yl)propanamide], the IC50 in assay [1] and in assay [2] (setting [3]) was under 500 nM each time.
Regarding `CC(Cc1cc2cc(-c3ccccc3Cl)ccc2nc1N)C(=O)NC1CCOC2(CCC2)C1` (stereo not shown) [Example 171, 3-(2-amino-6-(2-chlorophenyl)-3-quinolinyl)-2-methyl-N-(5-oxaspiro[3,5]non-8-yl)propanamide], the IC50 in assay [1] and in assay [2] (setting [3]) was under 500 nM throughout.
Consider “N-(2-fluorobenzyl)-3-(3-amino-7-o-tolylnaphthalen-2-yl)propanamide [Example 27]”, for which the values for the IC50 in assay [1] and in assay [2] (setting [5]) were under 500 nM and 1000 to 5000 nM, respectively.
For “N-(2-methoxybenzyl)-3-(3-amino-7-o-tolylnaphthalen-2-yl)propanamide [Example 61]” the same measures were 1000 to 5000 nM and over 5000 nM.
On to “N-(3-fluoro-3-methylbutyl)-2-methyl-3-(6-(3-methylpyridin-2-yl)quinolin-3-yl)propanamide [Example 101]”, for which the IC50 in assay [1] and in assay [2] (setting [5]) was under 500 nM each time.
For “N-(4-fluoro-4-methylpentan-2-yl)-2-methyl-3-(6-(3-methylpyridin-2-yl)quinolin-3-yl)propanamide [Example 100]”, the IC50 in assay [1] was 500 to 1000 nM; in assay [2] (setting [5]) it was 1000 to 5000 nM.
